Measured values reported in ChEMBL document CHEMBL1142579, “Antineoplastic agents. 527. Synthesis of 7-deoxynarcistatin, 7-deoxy-trans-dihydronarcistatin, and trans-dihydronarcistatin 1(1)” (J Nat Prod, 2005).
In brackets after ≈: the same amount, converted by molar mass.

How the values were obtained:
[1] = Aqueous solubility at 25 degC; type: physicochemical; settings: water
P388 = experiment: Cytotoxicity against mouse P388 cells; type: functional; settings: read-out: ED50 (the source's name)
BXPC-3 = experiment: Cytotoxicity against human […] cells; type: functional
MCF7 = experiment: Cytotoxicity against human MCF7 cells; type: functional
SF-268 = experiment: Cytotoxicity against human SF-268 cells; type: functional
NCI-H460 = experiment: Cytotoxicity against human NCI-H460 cells; type: functional
KM-20L2 = experiment: Cytotoxicity against human KM20L2 cells; type: functional
DU-145 = experiment: Cytotoxicity against human DU145 cells; type: functional

Row | SMILES | solubility [1] [µg/mL] | EC50 (P388) [µg/mL] | GI50 (BXPC-3) [µg/mL] | GI50 (MCF7) [µg/mL] | GI50 (SF-268) [µg/mL] | GI50 (NCI-H460) [µg/mL] | GI50 (KM-20L2) [µg/mL] | GI50 (DU-145) [µg/mL]
1 | O=C1N[C@H]2[C@H](O)[C@H](O)[C@@H](O)C[C@@H]2c2cc3c(cc21)OCO3 | < 1000 | 0.029 (≈ 0.0989 µM) | 0.046 (≈ 0.157 µM) | 0.034 (≈ 0.116 µM) | 0.059 (≈ 0.201 µM) | 0.043 (≈ 0.147 µM) | 0.051 (≈ 0.174 µM) | 0.04 (≈ 0.136 µM)
2 | O=C1N[C@H]2[C@H](O)[C@H](O)[C@@H](O)C[C@@H]2c2cc3c(c(O)c21)OCO3 | < 1000 | 0.0024 (≈ 0.00776 µM) | 0.012 (≈ 0.0388 µM) | 0.0053 (≈ 0.0171 µM) | 0.02 (≈ 0.0647 µM) | 0.0092 (≈ 0.0297 µM) | 0.015 (≈ 0.0485 µM) | 0.0066 (≈ 0.0213 µM)
3 | O=C1N[C@@H]2C(=C[C@H](O)[C@@H](O)[C@H]2O)c2cc3c(cc21)OCO3 | < 1000 | 0.019 (≈ 0.0652 µM) | 0.07 (≈ 0.24 µM) | 0.046 (≈ 0.158 µM) | 0.12 (≈ 0.412 µM) | 0.053 (≈ 0.182 µM) | 0.084 (≈ 0.288 µM) | 0.051 (≈ 0.175 µM)
4 | O=C1N[C@H]2[C@@H]3OP(=O)([O-])O[C@@H]3[C@@H](O)C[C@@H]2c2cc3c(c(O)c21)OCO3.[Na+] | > 10000 | 0.88 | 5.6 | 4.6 | 8.8 | 7.8 | 9.6 | 5.2
5 | O=C1N[C@H]2[C@@H]3OP(=O)([O-])O[C@@H]3[C@@H](O)C[C@@H]2c2cc3c(cc21)OCO3.[K+] | > 5000 | 1.7 | > 1 | > 1 | > 1 | > 1 | > 1 | > 1
6 | O=C1N[C@H]2[C@@H]3OP(=O)([O-])O[C@@H]3[C@@H](O)C[C@@H]2c2cc3c(cc21)OCO3.[Na+] | > 10000 | 1.6 | > 10 | 7.2 | > 10 | > 10 | > 10 | > 10
7 | O=C1N[C@H]2[C@@H]3OP(=O)([O-])O[C@@H]3[C@@H](O)C[C@@H]2c2cc3c(cc21)OCO3.[Li+] | > 5000 | 0.39 | > 1 | > 1 | > 1 | > 1 | > 1 | > 1
8 | O=C1N[C@@H]2C(=C[C@H](O)[C@H]3OP(=O)([O-])O[C@H]32)c2cc3c(cc21)OCO3.[Na+] | > 190000 | 1.7 | 5.3 | 4 | 6.3 | 4.7 | 5.6 | 3.9
9 | O=C1N[C@@H]2C(=C[C@H](O)[C@H]3OP(=O)([O-])O[C@H]32)c2cc3c(cc21)OCO3.[Li+] | > 10000 | 0.42 | > 1 | > 1 | > 1 | > 1 | > 1 | > 1
10 | O=C1N[C@H]2[C@@H]3OP(=O)([O-])O[C@@H]3[C@@H](O)C[C@@H]2c2cc3c(c(O)c21)OCO3.[K+] | > 1000 | 0.35 | > 1 | 0.64 | > 1 | > 1 | > 1 | 0.54
11 | O=C1N[C@H]2[C@@H]3OP(=O)([O-])O[C@@H]3[C@@H](O)C[C@@H]2c2cc3c(c(O)c21)OCO3.[Li+] | > 1000 | 0.26 | > 1 | > 1 | > 1 | > 1 | > 1 | > 1
12 | O=C1N[C@@H]2C(=C[C@H](O)[C@H]3OP(=O)([O-])O[C@H]32)c2cc3c(cc21)OCO3.[K+] | > 10000 | 1.4 | > 1 | > 1 | > 1 | > 1 | > 1 | > 1
